PMC2804746 (Biochemistry, 2008)

Columns and labels:
ecTrxR = ecTrxR (Escherichia coli, UniProt P0A9P4); test: anaerobic titration, reduction of bound FAD by visible spectra; format: biochemical; details: 50 mM TRIS, pH 7.5, 150 mM NaCl, 25 °C
taTrxR (Ta0984) = biological target: T1, taTrxR (Ta0984) (Thermoplasma acidophilum, UniProt Q9HJI4); test: X-ray crystal structure, […] Å; format: binding; details: one FAD per monomer, co-purified; crystals at pH 5.5, room temperature
T1 sequence (Q9HJI4 1-319): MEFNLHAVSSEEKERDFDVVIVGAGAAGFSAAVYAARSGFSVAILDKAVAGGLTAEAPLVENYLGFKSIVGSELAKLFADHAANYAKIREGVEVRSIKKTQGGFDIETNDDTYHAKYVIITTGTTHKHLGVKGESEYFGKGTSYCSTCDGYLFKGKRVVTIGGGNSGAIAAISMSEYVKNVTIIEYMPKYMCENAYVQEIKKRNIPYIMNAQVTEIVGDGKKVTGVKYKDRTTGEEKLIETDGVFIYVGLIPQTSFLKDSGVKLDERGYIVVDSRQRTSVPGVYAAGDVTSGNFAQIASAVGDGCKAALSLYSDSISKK

ecTrxR, sequence (P0A9P4 2-321): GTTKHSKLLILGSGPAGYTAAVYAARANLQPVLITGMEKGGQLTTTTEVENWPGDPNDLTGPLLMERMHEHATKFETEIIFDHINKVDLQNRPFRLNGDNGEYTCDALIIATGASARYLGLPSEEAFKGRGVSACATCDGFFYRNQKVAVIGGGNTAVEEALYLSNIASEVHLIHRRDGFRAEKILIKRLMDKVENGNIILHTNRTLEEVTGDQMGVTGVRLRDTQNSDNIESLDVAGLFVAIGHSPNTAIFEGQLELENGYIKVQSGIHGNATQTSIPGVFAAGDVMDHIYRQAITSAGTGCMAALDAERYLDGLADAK

## NC(=O)C1=CN([C@@H]2O[C@H](COP(=O)(O)OP(=O)(O)OC[C@H]3O[C@@H](n4cnc5c(N)ncnc54)[C@H](OP(=O)(O)O)[C@@H]3O)[C@@H](O)[C@H]2O)C=CC1 [NADPH]
ecTrxR
  anaerobic titration, reduction of bound FAD by visible spectra: titration of ecTrxR with NADPH results in a rapid reduction of the bound FAD

## NC(=O)C1=CN([C@@H]2O[C@H](COP(=O)(O)OP(=O)(O)OC[C@H]3O[C@@H](n4cnc5c(N)ncnc54)[C@H](O)[C@@H]3O)[C@@H](O)[C@H]2O)C=CC1 [NADH]
ecTrxR
  anaerobic titration, reduction of bound FAD by visible spectra: NADH does reduce the flavin to some extent in this protein

## Cc1cc2nc3c(=O)[nH]c(=O)nc-3n(C[C@H](O)[C@H](O)[C@H](O)COP(=O)(O)OP(=O)(O)OC[C@H]3O[C@@H](n4cnc5c(N)ncnc54)[C@H](O)[C@@H]3O)c2cc1C [FAD]
taTrxR (Ta0984)
  X-ray crystal structure, 2.35 Å; visible absorption spectrum: The taTrxR structure has one FAD molecule bound in a similar conformation as the ecTrxR structure
